The target of data set [1] is T1, CYP17 (human testicular microsome) (Homo sapiens, UniProt P05093).
T1 construct: using microsomal fraction from human testis (Celsis Cat #S00110) as the enzyme source; tissue Celsis S00110; host or cells: human testis microsomal fraction
T1 sequence (P05093 1-508): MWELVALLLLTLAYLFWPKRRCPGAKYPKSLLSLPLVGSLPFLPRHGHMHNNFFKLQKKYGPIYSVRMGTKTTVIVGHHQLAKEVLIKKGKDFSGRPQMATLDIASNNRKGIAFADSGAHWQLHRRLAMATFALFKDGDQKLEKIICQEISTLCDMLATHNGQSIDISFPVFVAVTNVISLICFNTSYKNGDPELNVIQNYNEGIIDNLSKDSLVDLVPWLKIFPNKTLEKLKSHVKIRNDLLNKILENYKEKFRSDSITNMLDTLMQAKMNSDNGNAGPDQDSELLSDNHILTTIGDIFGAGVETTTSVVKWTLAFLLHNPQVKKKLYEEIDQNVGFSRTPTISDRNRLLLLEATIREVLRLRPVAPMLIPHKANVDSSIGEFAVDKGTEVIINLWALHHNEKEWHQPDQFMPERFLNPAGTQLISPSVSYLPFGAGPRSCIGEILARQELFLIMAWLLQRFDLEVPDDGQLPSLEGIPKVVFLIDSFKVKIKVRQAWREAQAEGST
In words: CYP17 enzymatic assay (% inhibition at 10 nM), version 1 (Biological Example 5). It is filed as biochemical.

The test system of data set [2] is rat Cyp11B enzyme (rat adrenal mitochondria). In words: CYP11B enzymatic assay (% inhibition at 100 nM) (Biological Example 9). Type of data set: biochemical. Particulars: for CYP11B enzymatic assay % inhibition at 100 nM (Biological Example No. 9) / Biological Example No. 9: CYP11B enzymatic assay % inhibition at 100 nM: compound at 100 nM. As to the method: Adrenals excised from Sprague Dawley rats were homogenized, and mitochondria fraction were prepared by a series of centrifugation as described in Shuji Ohno, et al. J. of Steroid Biochemistry & Molecular Biology 2002, 80, 355-363. Prepared mitochondria protein was washed and resuspended in Buffer B (0.21 M mannitol, 70 mM sucrose, 5 mM MgCl2, 0.5 mM CaCl2, 20 mM Tris-HCl (pH 7.4) and 1 mM DTT, […]). The protein concentration was determined by BCA assay and stored as 10 μL aliquots at −80° C.
The rat Cyp11B enzyme assay was performed in 96-well plates. Typical assays were carried out in total 50 μL volume that included test compounds at 100 nM concentration, 1× Buffer B, 0.5 mM NADPH, 0.1 μM 11-deoxycortisol, and 2 μL of prepared rat adrenal mitochondria (added last). Reaction without test compound served as positive control and reaction without NADPH served as negative control. Reactions were allowed to incubate at 37° C. for 60 min with gentle shaking. The reaction was stopped by directly applying the enzymatic reaction mixture (1:5 diluted in ELISA assay buffer) to ELISA plate for evaluation of cortisol concentration according to manufacturer's protocol (Assay Design).
The mean absorbance value for each sample was used to determine the corresponding concentration from the standard curve. Amount of cortisol in the negative control (reaction that dis not include NADPH) was subtracted from total cortisol. Percent inhibition (inhibition %) of the compound was calculated using normalized cortisol concentration based on following formula: 100−([Cortisol] of compound/[Cortisol] of positive control *100).

Data set [3] addresses T1, CYP17 (human testicular microsome). In words: CYP17 enzymatic assay (IC50) (Biological Example 4). It is filed as biochemical. The following applies: human testicular microsome.
Data set [4] has the same target. In words: CYP17 enzymatic assay (% inhibition at 1 nM) (Biological Example 12). It is filed as biochemical. Particulars: compound at 1 nM.
Data set [5] can be described thus: Human liver microsome stability assay (Biological Example 8b). The following applies: liver microsomes, pH 7.4. A general note: Liver microsomes are vesicles of endoplasmic reticulum, rich in cytochrome P450 enzymes.
Procedure: The reaction was started with addition of excess NADPH (5 mg/mL, 15 μL in 0.1 M potassium phosphate buffer, 1.0 mM EDTA, pH 7.4), the total volume is 45 μL (compound final concentration was 1 μM). […] 50 μL of the supernatant was transferred from each well into a 96-well sample plate containing 50 μL of ultra-pure water (Millipore) for LC-MS/MS analysis.
Data set [6] has as its target T2, Cyp21 enzyme (Human HEK 293-Cyp21 stable transfected cells) (Homo sapiens, UniProt P08686).
T2 construct: expressed in transfected cells
T2 sequence (P08686 1-495): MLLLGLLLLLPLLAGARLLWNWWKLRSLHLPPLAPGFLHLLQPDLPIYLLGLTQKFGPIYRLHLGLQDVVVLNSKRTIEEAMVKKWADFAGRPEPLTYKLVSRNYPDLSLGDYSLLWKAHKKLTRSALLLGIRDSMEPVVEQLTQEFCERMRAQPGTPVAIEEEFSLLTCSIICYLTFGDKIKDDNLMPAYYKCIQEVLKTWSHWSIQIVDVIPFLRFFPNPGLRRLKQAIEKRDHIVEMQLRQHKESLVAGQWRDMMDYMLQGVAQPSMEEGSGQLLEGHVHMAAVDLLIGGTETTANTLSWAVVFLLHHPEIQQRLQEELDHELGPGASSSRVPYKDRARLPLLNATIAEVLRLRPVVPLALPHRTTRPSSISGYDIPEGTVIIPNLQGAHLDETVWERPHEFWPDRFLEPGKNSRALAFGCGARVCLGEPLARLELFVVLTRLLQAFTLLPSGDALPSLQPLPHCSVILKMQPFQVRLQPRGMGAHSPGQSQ
In words: CYP21-HEK293 enzymatic assay (IC50) (Biological Example 11). The following applies: HEK 293-Cyp21 cells; read-out: CYP21-HEK293 enzymatic assay IC50 (Biological Example No. 11). It is filed as cell-based.
Procedure: This assay was used to determine compound activity against Cyp21 enzyme. […] The next day, 20 μL medium was carefully removed and 10 μL of 10× pre-made compounds in DMEM+10% FBS+10% methanol was transferred to the wells to final concentrations of 1000, 100, 10, 1, or 0.1 nM. Mock treatment was 1% methanol in growth media and the cells were left at 37° C., 5% CO2 for 5 hr. After the incubation, 10 μL of substrate progesterone (Sigma) was added to the wells to make a final concentration of 10 μM. The cells were incubated the cells at 37° C. for 20 hr. At the end of incubation, 90 μL of conditioned media was removed to measure DOC level by ELISA.
The next day, the plates were washed twice with 250 μl of wash solution (0.015M PBS pH 7.4 containing 0.05% Tween 20). After being washed, the wells were blocked with 250 μL blocking buffer (3% BSA in 0.025M PBS, pH 7.4) at 37° C. for 2 h. The plates were washed again 3 times as before, and then 90 μL of sample /standards (prepared in complete growth media) was added into the appropriate wells followed by 10 μL of antibody solution (1:450 rabbit anti-DOC in 0.6% BSA/PBS). The plates were incubated at room temperature for 2 h on a shaker. The contents of the wells were removed and the plate was washed 4 times. After the final wash, 100 μL of secondary antibody (1:12000 HRP-goat-anti-rabbit IgG conjugate 0.6% BSA/PBS) was added into each well. […] The plate was washed again 4 times and 100 μL of TMB substrate solution was added to each well. The plate was incubated at room temperature for 10 min. 100 μL of stop solution was added to each well and the optical density was read at 450 nm.
The mean absorbance value for each sample was used to determine the corresponding concentration from the standard curve. Data was analyzed with “log(antagonist) vs response variable slope” under “non-linear regression analysis” using Prism5 software.

Setting [7] is: compound at 10 nM, read-out: CYP17 enzymatic assay % inhibition at 10 nM (Biological Example No. 5).
[8] abbreviates: read-out: CYP17 enzymatic assay IC50 (Biological Example No. 4).
The mark [9] stands for this setting: read-out: CYP17 enzymatic assay % inhibition at 1 nM (Biological Example No. 12).

Eleven molecules from patent US20130252930A1 (BIOMARIN PHARMACEUTICAL INC., priority 2010, published 2013) can be followed below.

Read-outs that look alike come from different tables or passages of the source.

Usually inhibition stands for the drop in the measured response relative to a control, in per cent. Broadly, the IC50 is the concentration that inhibits the measured activity by half. The half-life is how long it takes for the measured level to halve. Low readings indicate fast loss, high ones slow loss.

As to `CN1C(=O)CC[C@@]2(C)C1=CC[C@@H]1[C@@H]2CC[C@]2(C)C(n3ccnc3)=CC[C@@H]12` [Compound 183, (4aR,6aS)-7-(1H-imidazol-1-yl)-1,4a,6a-trimethyl-4,4a,4b,5,6,6a,9,9a,9b,10-decahydro-1H-indeno[5,4-f]quinolin-2(3H)-one], the inhibition at 0.01 µM in data set [1] (setting [7]) is 50 to 80%. Also, the “CYP11B enzymatic assay % inhibition at 100 nM (Biological Example No. 9)” value in data set [2] is “U (U means the compound had a percent inhibition of greater than or equal to 32%)”.

For the molecule `COc1cncc(C2=CCC3C4CC=C5N(C)C(=O)C[C@]5(C)C4CC[C@]23C)c1` (stereo partly drawn) [Compound 187, (3aR,5aS)-6-(5-methoxypyridin-3-yl)-1,3a,5a-trimethyl-3,3a,3b,4,5,5a,8,8a,8b,9-decahydroindeno[5,4-e]indol-2(1H)-one], the IC50 in data set [3] (setting [8]) was < 11 nM. In data set [2], the “CYP11B enzymatic assay % inhibition at 100 nM (Biological Example No. 9)” value is “T (T means the compound had a percent inhibition of less than 32% when tested at 100 nM)”. The inhibition at 0.001 µM in data set [4] (setting [9]) was > 50%. The molecule also registered a half-life at 1 μM in data set [5] of 1 to 50 min.

For `COc1cncc(C2=CCC3C4CC=C5N(C)C(=O)CCC[C@]5(C)C4CC[C@]23C)c1` (stereo partly drawn) [Compound 181, (5aR,7aS)-8-(5-methoxypyridin-3-yl)-1,5a,7a-trimethyl-3,4,5,5a,5b,6,7,7a,10,10a,10b,11-dodecahydrocyclopenta[5,6]naphtho[2,1-b]azepin-2(1H)-one], the inhibition at 0.01 µM in data set [1] (setting [7]) is > 80%. Besides, the “CYP11B enzymatic assay % inhibition at 100 nM (Biological Example No. 9)” value in data set [2] was “U (U means the compound had a percent inhibition of greater than or equal to 32%)”. Also, the half-life at 1 μM in data set [5] lay in the range of 1 to 50 min.

On to `CC(=O)O[C@H]1CC[C@@]2(C)C(=CC[C@H]3C4=CC=C(c5cccnc5)[C@@]4(C)CC[C@@H]32)C1` [Compound 78, (3S,10R,13S)-10,13-dimethyl-17-(pyridin-3-yl)-2,3,4,7,8,9,10,11,12,13-decahydro-1H-cyclopenta[a]phenanthren-3-yl acetate], for which, in data set [1] (10 nM compound, DHEA by ELISA, read-out: Biological Example No. 5: CYP17 percent inhibition at 10 nM (version 1)), the inhibition at 0.01 µM lay within 1 to 50%. The “Biological Example No. 9: CYP11B percent inhibition at 100 nM” value in data set [2] (100 nM compound, cortisol by ELISA) is given as “U (U means the compound had a percent inhibition of greater than or equal to 32%)”.

As for `COC(=O)N1CCC[C@@]2(C)[C@@H](CC[C@@H]3[C@@H]2CC[C@]2(C)C(n4ccnc4)=CC[C@@H]32)C1` [Compound 442, (5aR,5bS,7aS,10aS,10bR,12aR)-methyl 8-(1H-imidazol-1-yl)-5a,7a-dimethyl-3,4,5,5a,5b,6,7,7a,10,10a,10b,11,12,12a-tetradecahydrocyclopenta[5,6]naphtho[2,1-c]azepine-2(1H)-carboxylate], the “CYP11B enzymatic assay % inhibition at 100 nM (Biological Example No. 9)” value in data set [2] is “U (U means the compound had a percent inhibition of greater than or equal to 32%)”. For the same molecule, in data set [6], the IC50 was > 100 nM. In addition, the inhibition at 0.001 µM in data set [4] (setting [9]) is 10 to 50%.

On to `CN1C(=O)CCC[C@@]2(C)C1=CCC1C2CC[C@]2(C)C(c3cccnc3)=CCC12` (stereo partly drawn) [Compound 180, (5aR,7aS)-1,5a,7a-trimethyl-8-(pyridin-3-yl)-3,4,5,5a,5b,6,7,7a,10,10a,10b,11-dodecahydrocyclopenta[5,6]naphtho[2,1-b]azepin-2(1H)-one], for which the IC50 in data set [3] (setting [8]) is < 11 nM. The inhibition at 0.01 µM in data set [1] (setting [7]) is > 80%. The “CYP11B enzymatic assay % inhibition at 100 nM (Biological Example No. 9)” value in data set [2] was “U (U means the compound had a percent inhibition of greater than or equal to 32%)”. The half-life at 1 μM in data set [5] is 1 to 50 min.

Take `CN1C(=O)C[C@@]2(C)C1=CCC1C2CC[C@]2(C)C(c3cccnc3)=CCC12` (stereo partly drawn) [Compound 185, (3aR,5aS)-1,3a,5a-trimethyl-6-(pyridin-3-yl)-3,3a,3b,4,5,5a,8,8a,8b,9-decahydroindeno[5,4-e]indol-2(1H)-one]: the IC50 in data set [3] (setting [8]) was < 11 nM. In addition, the “CYP11B enzymatic assay % inhibition at 100 nM (Biological Example No. 9)” value in data set [2] is listed as “U (U means the compound had a percent inhibition of greater than or equal to 32%)”. Besides, the inhibition at 0.001 µM in data set [4] (setting [9]) was > 50%.

As for `CN1C(=O)CC[C@@]2(C)C1=CC[C@@H]1[C@@H]2CC[C@]2(C)C(n3cncc3C#N)=CC[C@@H]12` [Compound 433, 1-((4aR,6aS)-1,4a,6a-trimethyl-2-oxo-2,3,4,4a,4b,5,6,6a,9,9a,9b,10-dodecahydro-1H-indeno[5,4-f]quinolin-7-yl)-1H-imidazole-5-carbonitrile], in data set [2], the “Biological Example No. 9: CYP11B enzymatic assay % inhibition at 100 nM” value is listed as “T (T means the compound had a percent inhibition of less than 32% when tested at 100 nM)”. For the same molecule, in data set [4] (read-out: Biological Example No. 12: CYP17 enzymatic assay % inhibition at 1 nM), the inhibition at 0.001 µM was < 10%.

For `Cc1cncc(C2=CCC3C4CC=C5N(C)C(=O)CCC[C@]5(C)C4CC[C@]23C)c1` (stereo partly drawn) [Compound 182, (5aR,7aS)-1,5a,7a-trimethyl-8-(5-methylpyridin-3-yl)-3,4,5,5a,5b,6,7,7a,10,10a,10b,11-dodecahydrocyclopenta[5,6]naphtho[2,1-b]azepin-2(1H)-one], the inhibition at 0.01 µM in data set [1] (setting [7]) was in the range of 50 to 80%. In data set [2], the “CYP11B enzymatic assay % inhibition at 100 nM (Biological Example No. 9)” value is “U (U means the compound had a percent inhibition of greater than or equal to 32%)”.

Turning to `CN1C(=O)C[C@@]2(C)C1=CCC1C2CC[C@]2(C)C(n3ccnc3)=CCC12` (stereo partly drawn) [Compound 186, (3aR,5aS)-6-(1H-imidazol-1-yl)-1,3a,5a-trimethyl-3,3a,3b,4,5,5a,8,8a,8b,9-decahydroindeno[5,4-e]indol-2(1H)-one], the “CYP11B enzymatic assay % inhibition at 100 nM (Biological Example No. 9)” value in data set [2] is given as “U (U means the compound had a percent inhibition of greater than or equal to 32%)”. In addition, the inhibition at 0.001 µM in data set [4] (setting [9]) was 10 to 50%.

With `C[C@]12CCCN(S(C)(=O)=O)CC1CC[C@@H]1[C@@H]2CC[C@]2(C)C(n3ccnc3)=CC[C@@H]12` (stereo partly drawn) [Compound 437, (5aR,7aS)-8-(1H-imidazol-1-yl)-5a,7a-dimethyl-2-(methylsulfonyl)-1,2,3,4,5,5a,5b,6,7,7a,10,10a,10b,11,12,12a-hexadecahydrocyclopenta[5,6]naphtho[2,1-c]azepine], the IC50 in data set [3] (read-out: Biological Example No. 4: CYP17 enzymatic assay IC50) is > 25 nM. The “Biological Example No. 9: CYP11B enzymatic assay % inhibition at 100 nM” value in data set [2] is reported as “U (U means the compound had a percent inhibition of greater than or equal to 32%)”.
